Test results published in PMC6010089, “Isothiocyanates: cholinesterase inhibiting, antioxidant, and anti-inflammatory activity” (Journal of Enzyme Inhibition and Medicinal Chemistry, 2018).
Like-named read-outs stand apart in the source and are kept apart here.

Assays:
[1] = target: T1, butyrylcholinesterase (BChE) (Equus caballus, UniProt P81908); experiment: biochemical; conditions: read-out: BChE / Inhibition (%)^a
[2] = target: T2, acetylcholinesterase (AChE) (Electrophorus electricus, UniProt O42275); experiment: biochemical; conditions: read-out: AChE / Inhibition (%)^a
COX-2 [3] = target: T3, COX-2 (Homo sapiens, UniProt P35354); experiment: Cayman human COX-2 inhibitor screening kit, PGF2alpha ELISA; assay type: biochemical; conditions: read-out: COX-2 / Inhibition (%)^b
T3 construct: gene PTGS2
T3 sequence (P35354 18-604): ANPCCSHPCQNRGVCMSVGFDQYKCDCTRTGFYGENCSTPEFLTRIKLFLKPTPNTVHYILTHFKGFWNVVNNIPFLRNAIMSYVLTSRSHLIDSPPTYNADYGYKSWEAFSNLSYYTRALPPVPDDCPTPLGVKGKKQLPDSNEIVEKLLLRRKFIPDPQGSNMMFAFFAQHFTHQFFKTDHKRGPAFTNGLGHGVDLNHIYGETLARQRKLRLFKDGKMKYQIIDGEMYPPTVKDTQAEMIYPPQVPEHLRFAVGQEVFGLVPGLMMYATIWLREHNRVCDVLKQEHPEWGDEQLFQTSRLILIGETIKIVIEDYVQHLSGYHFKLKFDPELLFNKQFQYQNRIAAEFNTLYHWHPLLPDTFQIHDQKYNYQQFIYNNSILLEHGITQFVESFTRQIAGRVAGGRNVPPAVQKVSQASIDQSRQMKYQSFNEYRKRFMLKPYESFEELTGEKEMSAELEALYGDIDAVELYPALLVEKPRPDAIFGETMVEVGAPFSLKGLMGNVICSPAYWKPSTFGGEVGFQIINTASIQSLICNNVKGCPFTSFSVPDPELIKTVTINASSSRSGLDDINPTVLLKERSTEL

COX-2 [4] = target: T3, COX-2; experiment: biochemical; set-up: COX-2 inhibitor screening kit, 10 min preincubation, arachidonic acid 2 min, PGF2alpha ELISA at 412 nm; conditions: read-out: COX-2 / Inhibition (%)^b
Protocol: To analyse the inhibition of the COX-2 enzyme activity mediated by the selected ITCs, the COX-2 (human) inhibitor screening assay kit from Cayman was used. In summary, the COX-2 enzyme was incubated with the samples (having final concentration in the assay of 50 μM, in 96% ethanol) for 10 min at 37 °C and subsequently the reaction was initiated by adding arachidonic acid and incubating the mixture for 2 min at 37 °C. The background tubes correspond to inactivated COX-2 enzyme obtained after keeping the tubes containing enzymes in boiling water for 3 min along with sample solvent. Enzyme catalysis was blocked by adding saturated stannous chloride solution. Prostaglandin (PGF2α) release was quantified using ELISA at 412 nm. Indomethacin solution (having final concentration in the assay of 10 μM, in 96% ethanol) was used as a positive control.

[5] = target: T2, acetylcholinesterase (AChE); experiment: modified Ellman assay; assay type: biochemical; set-up: electric eel, type V-S
[6] = target: T1, butyrylcholinesterase (BChE); experiment: modified Ellman assay; assay type: biochemical; set-up: from equine serum

T1 sequence (P81908 whole entry): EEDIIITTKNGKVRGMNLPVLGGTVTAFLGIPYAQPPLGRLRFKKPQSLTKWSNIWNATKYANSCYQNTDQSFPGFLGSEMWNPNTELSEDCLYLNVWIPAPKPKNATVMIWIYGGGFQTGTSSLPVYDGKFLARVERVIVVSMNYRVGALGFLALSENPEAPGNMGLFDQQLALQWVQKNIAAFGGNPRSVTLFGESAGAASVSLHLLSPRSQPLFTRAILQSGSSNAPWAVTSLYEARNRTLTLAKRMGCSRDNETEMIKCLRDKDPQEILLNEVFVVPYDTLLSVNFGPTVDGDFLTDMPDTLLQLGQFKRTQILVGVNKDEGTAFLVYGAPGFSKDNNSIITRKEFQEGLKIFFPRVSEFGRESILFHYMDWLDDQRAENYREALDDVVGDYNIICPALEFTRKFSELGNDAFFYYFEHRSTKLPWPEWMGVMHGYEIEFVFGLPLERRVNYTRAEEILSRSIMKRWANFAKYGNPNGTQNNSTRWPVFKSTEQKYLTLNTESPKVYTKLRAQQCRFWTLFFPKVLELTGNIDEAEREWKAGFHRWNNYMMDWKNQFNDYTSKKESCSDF
T2 sequence (O42275 24-633): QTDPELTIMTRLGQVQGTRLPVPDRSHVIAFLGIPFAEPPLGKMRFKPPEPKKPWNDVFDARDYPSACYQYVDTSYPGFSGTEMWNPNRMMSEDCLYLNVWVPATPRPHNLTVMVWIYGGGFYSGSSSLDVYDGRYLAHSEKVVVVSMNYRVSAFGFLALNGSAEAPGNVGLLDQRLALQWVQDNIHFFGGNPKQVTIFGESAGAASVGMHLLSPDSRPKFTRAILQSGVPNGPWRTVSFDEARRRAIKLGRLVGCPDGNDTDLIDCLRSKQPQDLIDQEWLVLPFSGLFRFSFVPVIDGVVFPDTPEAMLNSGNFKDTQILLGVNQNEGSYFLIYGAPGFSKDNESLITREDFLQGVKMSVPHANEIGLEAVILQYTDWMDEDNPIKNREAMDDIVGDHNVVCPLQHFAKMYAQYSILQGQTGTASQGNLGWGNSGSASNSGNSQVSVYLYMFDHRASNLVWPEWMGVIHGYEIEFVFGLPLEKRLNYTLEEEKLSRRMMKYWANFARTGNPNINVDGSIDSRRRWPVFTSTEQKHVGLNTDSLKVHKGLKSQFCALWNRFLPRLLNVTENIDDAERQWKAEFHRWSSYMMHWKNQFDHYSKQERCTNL

Compound	inhibition at 1140 µM [1] [%]	inhibition at 1140 µM [2] [%]	inhibition at 50 µM (COX-2 [3]) [%]	inhibition at 50 µM (COX-2 [4]) [%]	IC50 [5] [µM]	inhibition at 1140 µM [6] [%]	IC50 ([5]; read-out: AChE / IC50) [µM]
CSCCCN=C=S [compound 11, 3-(Methylsulfanyl)propyl ITC]	15.4 ± 0.3	4.4 ± 0.7	48 ± 0.3				
S=C=Nc1ccccc1 [compound 1, phenyl isothiocyanate]			98.9 ± 0.3				
Cc1ccc(N=C=S)cc1 [compound 5, 4-Methylphenyl ITC]		58.4 ± 1.1		13.6 ± 0.8	930	40.7 ± 0.7	
COc1cccc(N=C=S)c1 [compound 8, 3-Methoxyphenyl ITC]		61.4 ± 1.6					1000
COc1ccccc1N=C=S [compound 7, 2-Methoxyphenyl ITC]	19.5 ± 0.1	57 ± 1.5	99 ± 0.7				570
